Experimental findings from patent publication US20040102431A1, “Substituted amino-aza-cycloalkanes useful against malaria” (priority 2000, published 2004) are described below.

Molecules are shown by their SMILES.

The target of this test is plasmepsin II (Plasmodium falciparum, UniProt P46925). Briefly: biochemical. To be noted: Additional Examples table; FRET, pH 5, 37° C., 40 min, substrate 1 μM; read-out: IC50 (nM) on plasmepsin II.
Chain of plasmepsin II (P46925 125-453): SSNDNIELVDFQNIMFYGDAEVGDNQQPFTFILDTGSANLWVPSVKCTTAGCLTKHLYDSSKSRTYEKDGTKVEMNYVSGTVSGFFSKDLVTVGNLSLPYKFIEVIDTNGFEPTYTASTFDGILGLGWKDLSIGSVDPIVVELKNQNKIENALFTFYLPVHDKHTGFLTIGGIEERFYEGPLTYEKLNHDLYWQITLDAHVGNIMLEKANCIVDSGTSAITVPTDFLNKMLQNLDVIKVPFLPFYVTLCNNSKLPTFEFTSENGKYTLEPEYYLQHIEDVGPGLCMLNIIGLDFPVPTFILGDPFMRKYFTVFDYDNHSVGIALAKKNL
Turning to `CCCCCc1ccc(C(=O)N(Cc2ccc(-c3ccc(C#N)cc3)cc2)C2CCN(Cc3ccccc3)CC2)cc1` [Example 59, N-(1-Benzyl-piperidin-4-yl)-N-(4′-cyano-biphenyl-4-ylmethyl)-4-pentyl-benzamide], the IC50 is 81 nM.
As for `CCCCCc1ccc(C(=O)N(Cc2ccc(-c3ccccc3F)cc2)C2CCN(Cc3ccoc3)CC2)cc1` [Example 60, N-(2′-Fluorobiphenyl-4-ylmethyl)-N-(1-furan-3-ylmethylpiperidin-4-yl)-4-pentylbenzamide], the IC50 was found to be 87 nM.
In the case of `CCCCCc1ccc(C(=O)N(Cc2ccc(-c3cccnc3)cc2)C2CCN(CC3=CCCCC3)CC2)cc1` [Example 61, N-(1-Cyclohex-1-enylmethyl-piperidin-4-yl)-4-pentyl-N-(4-pyridin-3-yl-benzyl)benzamide] it was 89 nM; in that of `CCCCCc1ccc(C(=O)N(Cc2ccc(-c3ccc4c(c3)OCO4)cc2)C2CCN(Cc3ccc(O)cc3)CC2)cc1` [Example 62, N-(4-Benzo[1,3]dioxol-5-yl-benzyl)-N-[1-(4-hydroxybenzyl)piperidin-4-yl]-4-pentylbenzamide], 90 nM; in that of `CCCCCc1ccc(C(=O)N(Cc2ccc(-c3ccccc3F)cc2)C2CCN(Cc3ccncc3)CC2)cc1` [Example 63, N-(2′-Fluorobiphenyl-4-ylmethyl)-4-pentyl-N-(1-pyridin-4-ylmethyl-piperidin-4-yl)benzamide], 95 nM.
Turning to `CCCCCc1ccc(C(=O)N(Cc2ccc(-c3cccnc3)cc2)C2CCN(Cc3ccncc3)CC2)cc1` [Example 64, 4-Pentyl-N-(4-pyridin-3-yl-benzyl)-N-(1-pyridin-4-ylmethylpiperidin-4-yl)benzamide], the IC50 was determined as 102 nM.
As for `CCCCCc1ccc(C(=O)N(Cc2ccc(-c3ccccc3)cc2)C2CCN(Cc3cccnc3)CC2)cc1` [Example 65, N-Biphenyl-4-ylmethyl-4-pentyl-N-(1-pyridin-3-ylmethylpiperidin-4-yl)benzamide], the IC50 was 103 nM.
As for `CCCCCc1ccc(C(=O)N(Cc2ccc(-c3ccncc3)cc2)C2CCN(Cc3ccccc3)CC2)cc1` [Example 66, N-(1-Benzylpiperidin-4-yl)-4-pentyl-N-(4-pyridin-4-ylbenzyl)benzamide], the figure is 104 nM.
Regarding `CCCCCc1ccc(C(=O)N(Cc2ccc(-c3ccccc3Cl)cc2)C2CCN(Cc3ccccc3)CC2)cc1` [Example 68, N-(1-Benzylpiperidin-4-yl)-N-(2′-chlorobiphenyl-4-ylmethyl)-4-pentylbenzamide], the IC50 is 120 nM.
As for `CCCCCc1ccc(C(=O)N(Cc2ccc(-c3ccccc3F)cc2)C2CCN(CC3=CCCCC3)CC2)cc1` [Example 69, N-(1-Cyclohex-1-enylmethylpiperidin-4-yl)-N-(2′-fluorobiphenyl-4-ylmethyl)-4-pentylbenzamide], the figure is 123 nM; as for `CCCCCc1ccc(C(=O)N(Cc2ccc(-c3ccccn3)cc2)C2CCN(CC3=CCCCC3)CC2)cc1` [Example 70, N-(1-Cyclohex-1-enylmethylpiperidin-4-yl)-4-pentyl-N-(4-pyridin-2-ylbenzyl)benzamide], 125 nM; as for `CCCCCc1ccc(C(=O)N(Cc2ccc(-c3ccccc3)cc2)C2CCN(Cc3ccoc3)CC2)cc1` [Example 71, N-Biphenyl-4-ylmethyl-N-(1-furan-3-ylmethyl-piperidin-4-yl)-4-pentylbenzamide], 127 nM.
As for `CCCCCc1ccc(C(=O)N(Cc2ccc(-c3cccnc3)cc2)C2CCN(Cc3ccc(CO)o3)CC2)cc1` [Example 72, N-[1-(5-Hydroxymethyl-furan-2-ylmethyl)piperidin-4-yl]-4-pentyl-N-(4-pyridin-3-ylbenzyl)benzamide], the figure is 128 nM.
In the case of `CCCCCc1ccc(C(=O)N(Cc2ccc(-c3cccnc3)cc2)C2CCN(CC3CC3)CC2)cc1` [Example 73, N-(1-Cyclopropylmethylpiperidin-4-yl)-4-pentyl-N-(4-pyridin-3-yl-benzyl)benzamide] it was 128 nM; in that of `CCCCCc1ccc(C(=O)N(Cc2ccc(-c3cccc(C)c3)cc2)C2CCN(Cc3ccccc3)CC2)cc1` [Example 74, N-(1-Benzylpiperidin-4-yl)-N-(3′-methylbiphenyl-4-ylmethyl)-4-pentylbenzamide], 140 nM.
As to `CCCCCc1ccc(C(=O)N(Cc2ccc(OCc3ccccc3)cc2)[C@H]2CCN(Cc3ccccc3)C2)cc1` [Example 75, N-(4-Benzyloxybenzyl)-N-((3S)-1-benzylpyrrolidin-3-yl)-4-pentylbenzamide], the IC50 was determined as 141 nM.
With `CCCCCc1ccc(C(=O)N(Cc2ccc(-c3ccccc3F)cc2)C2CCN(Cc3ccc(O)cc3)CC2)cc1` [Example 76, N-(2′-Fluorobiphenyl-4-ylmethyl)-N-[1-(4-hydroxybenzyl)piperidin-4-yl]-4-pentylbenzamide], the IC50 worked out at 152 nM.
In the case of `CCCCCc1ccc(C(=O)N(Cc2ccc(C(F)(F)F)c(F)c2)C2CCN(Cc3ccccc3)CC2)cc1` [Example 77, N-(1-Benzylpiperidin-4-yl)-N-(3-fluoro-4-trifluoromethylbenzyl)-4-pentylbenzamide] it was 153 nM.
As for `CCCCCc1ccc(C(=O)N(Cc2ccc(-c3ccccn3)cc2)C2CCN(Cc3ccoc3)CC2)cc1` [Example 78, N-(1-Furan-3-ylmethylpiperidin-4-yl)-4-pentyl-N-(4-pyridin-2-yl-benzyl)benzamide], the figure is 168 nM; as for `CCCCCc1ccc(C(=O)N(Cc2ccc(-c3ccccn3)cc2)C2CCN(Cc3ccncc3)CC2)cc1` [Example 79, 4-Pentyl-N-(4-pyridin-2-yl-benzyl)-N-(1-pyridin-4-ylmethylpiperidin-4-yl)benzamide], 176 nM; as for `CCCCCc1ccc(C(=O)N(Cc2ccc(OC(F)(F)F)cc2)C2CCN(Cc3ccccc3)CC2)cc1` [Example 80, N-(1-Benzylpiperidin-4-yl)-4-pentyl-N-(4-trifluoromethoxybenzyl)benzamide], 187 nM.
On to `CCCCCc1ccc(C(=O)N(Cc2ccc(-c3ccccc3)cc2)C2CCN(Cc3ccc(O)cc3)CC2)cc1` [Example 81, N-Biphenyl-4-ylmethyl-N-[1-(4-hydroxybenzyl)piperidin-4-yl]-4-pentylbenzamide], for which the IC50 is 192 nM.
In the case of `CCCCCc1ccc(C(=O)N(Cc2ccc(-c3ccccc3)cc2)C2CCN(CC3=CCCCC3)CC2)cc1` [Example 82, N-Biphenyl-4-ylmethyl-N-(1-cyclohex-1-enylmethylpiperidin-4-yl)-4-pentylbenzamide] it was 196 nM; in that of `CCCCCc1ccc(C(=O)N(Cc2ccc(OC(C)C)cc2)C2CCN(Cc3ccccc3)CC2)cc1` [Example 83, N-(1-Benzylpiperidin-4-yl)-N-(4-isopropoxybenzyl)-4-pentylbenzamide], 204 nM.
Regarding `CCCCCc1ccc(C(=O)N(Cc2ccc(-c3ccccn3)cc2)C2CCN(Cc3ccccc3)CC2)cc1` [Example 84, N-(1-Benzylpiperidin-4-yl)-4-pentyl-N-(4-pyridin-2-yl-benzyl)benzamide], the IC50 stood at 209 nM.
Consider `CCCCCc1ccc(C(=O)N(Cc2ccc(-c3cccnc3)cc2)C2CCN(Cc3cc4ccccc4o3)CC2)cc1` [Example 85, N-(1-Benzofuran-2-ylmethyl-piperidin-4-yl)-4-pentyl-N-(4-pyridin-3-yl-benzyl)benzamide], for which the IC50 was determined as 211 nM.
Consider `CCCCCc1ccc(C(=O)N(Cc2ccc3ccccc3c2)C2CCN(Cc3ccccc3)CC2)cc1` [Example 86, N-(1-Benzylpiperidin-4-yl)-N-naphthalen-2-ylmethyl-4-pentylbenzamide], for which the IC50 is 248 nM.
As for `CCCCCc1ccc(C(=O)N(Cc2ccc(-c3cncnc3)cc2)C2CCN(Cc3ccccc3)CC2)cc1` [Example 87, N-(1-Benzylpiperidin-4-yl)-4-pentyl-N-(4-pyrimidin-5-ylbenzyl)benzamide], the figure is 250 nM.
With `CCCCCc1ccc(CN(Cc2ccc(-c3ccc(OC)c(OC)c3)cc2)C2CCN(Cc3ccccc3)CC2)cc1` [Example 88, (1-Benzylpiperidin-4-yl)-(3′,4′-dimethoxybiphenyl-4-ylmethyl)-(4-pentyl-benzyl)amine], the IC50 stood at 255 nM.
As for `CCCCCc1ccc(C(=O)N(Cc2ccc(-c3ccc(F)cc3)cc2)C2CCN(Cc3ccccc3)CC2)cc1` [Example 89, N-(1-Benzylpiperidin-4-yl)-N-(4′-fluorobiphenyl-4-ylmethyl)-4-pentylbenzamide], the figure is 260 nM; as for `C=CCOc1ccc(CN(C(=O)c2ccc(CCCCC)cc2)C2CCN(Cc3ccccc3)CC2)cc1` [Example 90, N-(4-Allyloxybenzyl)-N-(1-benzylpiperidin-4-yl)-4-pentylbenzamide], 270 nM.
Take `CCCCCc1ccc(CN(Cc2ccc(-c3ccc4c(c3)OCO4)cc2)C2CCN(Cc3ccccc3)CC2)cc1` [Example 91, (4-Benzo[1,3]dioxol-5-yl-benzyl)-(1-benzylpiperidin-4-yl)-(4-pentyl-benzyl)amine]: the IC50 was 275 nM.
As for `CCCCCc1ccc(C(=O)N(Cc2ccc(OCc3ccccc3)cc2O)C2CCN(Cc3ccccc3)CC2)cc1` [Example 92, N-(4-Benzyloxy-2-hydroxy-benzyl)-N-(1-benzylpiperidin-4-yl)-4-pentylbenzamide], the figure is 281 nM; as for `CCCCCc1ccc(C(=O)N(Cc2ccc3c(c2)OCO3)C2CCN(Cc3ccccc3)CC2)cc1` [Example 93, N-Benzo[1,3]dioxol-5-ylmethyl-N-(1-benzylpiperidin-4-yl)-4-pentyl-benzamide], 284 nM; as for `CCCCCc1ccc(C(=O)N(Cc2ccc(OCC)cc2)C2CCN(Cc3ccccc3)CC2)cc1` [Example 94, N-(1-Benzylpiperidin-4-yl)-N-(4-ethoxybenzyl)-4-pentylbenzamide], 284 nM.
In the case of `CCCCCc1ccc(CN(Cc2ccc(-c3ccc(C#N)cc3)cc2)C2CCN(Cc3ccccc3)CC2)cc1` [Example 95, 4′-{[(1-Benzylpiperidin-4-yl)-(4-pentylbenzyl)amino]methyl}-biphenyl-4-carbonitrile], the IC50 stood at 294 nM.
For `CCCCCc1ccc(C(=O)N(Cc2ccc(-c3ccccc3)cc2)C2CCN(Cc3cccc(C(F)(F)F)c3)CC2)cc1` [Example 96, N-Biphenyl-4-ylmethyl-4-pentyl-N-[1-(3-trifluoromethylbenzyl)piperidin-4-yl]benzamide], the IC50 amounted to 319 nM.

Broadly, the IC50 is the concentration that inhibits the measured activity by half.
